Data from PubChem BioAssay AID330 (DTP/NCI, 2004).
“And” between values parts separate entries of the source, which are not always exact repeats. Equal entries are not always repeated. Inconclusive results and toxic doses are left out. Square brackets hold non-standard residues; d marks the D form. Peptide text beside a SMILES is read from it. Sar = CNCC(=O)O

Tested on: P388 leukemia ip, CD2F1 mice, survival T/C
Experiment: NCI In Vivo Anticancer Drug Screen. Data for tumor model P388 Leukemia (intraperitoneal) in CD2F1 (CDF1) mice
Conditions: endpoint: median survival time, higher = longer survival
Procedure, shortened: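 Mice carrying the transplanted tumor received test compound or vehicle. Survival was recorded in each group, and the value is the treated-group measurement divided by that of the vehicle-treated control group.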

[1] = dose: 100.0 mg/kg/injection, schedule: Q01DX001 (ip), vehicle: Klucel (hydroxypropylcellulose) (HPC)
[2] = dose: 200.0 mg/kg/injection, schedule: Q01DX001 (ip), vehicle: Klucel (hydroxypropylcellulose) (HPC)
[3] = dose: 400.0 mg/kg/injection, schedule: Q01DX001 (ip), vehicle: Klucel (hydroxypropylcellulose) (HPC)
[4] = dose: 50.0 mg/kg/injection, schedule: Q01DX005 (ip), vehicle: saline
[5] = dose: 100.0 mg/kg/injection, schedule: Q01DX005 (ip), vehicle: saline
[6] = dose: 200.0 mg/kg/injection, schedule: Q01DX005 (ip), vehicle: saline
[7] = dose: 100.0 mg/kg/injection, schedule: Q01DX001 (ip), vehicle: saline with Tween-80
[8] = dose: 200.0 mg/kg/injection, schedule: Q01DX001 (ip), vehicle: saline with Tween-80
[9] = dose: 2.5 mg/kg/injection, schedule: Q01DX009 (ip), vehicle: saline with Tween-80
[10] = dose: 5.0 mg/kg/injection, schedule: Q01DX009 (ip), vehicle: saline with Tween-80
[11] = dose: 10.0 mg/kg/injection, schedule: Q01DX009 (ip), vehicle: saline with Tween-80
[12] = dose: 6.25 mg/kg/injection, schedule: Q01DX005 (ip), vehicle: Klucel (hydroxypropylcellulose) (HPC)
[13] = dose: 12.5 mg/kg/injection, schedule: Q01DX005 (ip), vehicle: Klucel (hydroxypropylcellulose) (HPC)
[14] = dose: 25.0 mg/kg/injection, schedule: Q01DX005 (ip), vehicle: Klucel (hydroxypropylcellulose) (HPC)
[15] = dose: 60.0 mg/kg/injection, schedule: Q01DX005 (ip), vehicle: saline with Tween-80
[16] = dose: 120.0 mg/kg/injection, schedule: Q01DX005 (ip), vehicle: saline with Tween-80
[17] = dose: 240.0 mg/kg/injection, schedule: Q01DX005 (ip), vehicle: saline with Tween-80
[18] = dose: 50.0 mg/kg/injection, schedule: Q01DX005 (ip), vehicle: Klucel (hydroxypropylcellulose) (HPC)
[19] = dose: 100.0 mg/kg/injection, schedule: Q01DX005 (ip), vehicle: Klucel (hydroxypropylcellulose) (HPC)
[20] = dose: 200.0 mg/kg/injection, schedule: Q01DX005 (ip), vehicle: Klucel (hydroxypropylcellulose) (HPC)
[21] = dose: 50.0 mg/kg/injection, schedule: Q01DX009 (ip), vehicle: saline with Tween-80
[22] = dose: 100.0 mg/kg/injection, schedule: Q01DX009 (ip), vehicle: saline with Tween-80
[23] = dose: 200.0 mg/kg/injection, schedule: Q01DX009 (ip), vehicle: saline with Tween-80

N#Cc1c2ccccc2cc[n+]1Cc1ccc2c(c1)OCO2
T/C (dose: 3.12 mg/kg/injection, schedule: Q04DX002 (ip), vehicle: Klucel (hydroxypropylcellulose) (HPC)): 105 % of control | T/C (dose: 6.25 mg/kg/injection, schedule: Q04DX002 (ip), vehicle: Klucel (hydroxypropylcellulose) (HPC)): 104 % of control | T/C (dose: 12.5 mg/kg/injection, schedule: Q04DX002 (ip), vehicle: Klucel (hydroxypropylcellulose) (HPC)): 100 % of control and 106 % of control

CCCCCC1(CCCCCCCC(O)CC(=O)OCC)OCCO1 (centres undefined)
T/C [1]: 100 % of control | T/C [2]: 108 % of control | T/C [3]: 100 % of control

CN(CC(=O)O)C(=O)CNC(=O)CN (H-Gly-Gly-[Sar]-OH)
T/C [4]: 91 % of control | T/C [5]: 92 % of control | T/C [6]: 91 % of control

Cc1ccc(S(=O)(=O)N(C)C)cc1NC1=NCCO1
T/C (dose: 50.0 mg/kg/injection, schedule: Q01DX001 (ip), vehicle: saline with Tween-80): 95 % of control | T/C [7]: 95 % of control | T/C [8]: 100 % of control

CC(C)NCCCNC(=O)C1COc2ccccc2O1 (centres undefined)
T/C [4]: 94 % of control | T/C [5]: 88 % of control | T/C [6]: 90 % of control

Cc1ccc(S(=O)(=O)N/N=C/c2c(Br)nc3sccn23)cc1
T/C [1]: 106 % of control | T/C [2]: 108 % of control | T/C [3]: 106 % of control

CC(=O)OCC1OC(SP(c2ccccc2)c2ccccc2)C(OC(C)=O)C(OC(C)=O)C1OC(C)=O (centres undefined)
T/C (dose: 50.0 mg/kg/injection, schedule: Q01DX009 (ip), vehicle: saline + alcohol): 116 % of control | T/C (dose: 100.0 mg/kg/injection, schedule: Q01DX009 (ip), vehicle: saline + alcohol): 118 % of control | T/C (dose: 200.0 mg/kg/injection, schedule: Q01DX009 (ip), vehicle: saline + alcohol): 108 % of control

CC(C)(F)c1nc2cc3ccccc3cc2[nH]c1=O
T/C [7]: 98 % of control | T/C [8]: 90 % of control

Oc1cc2c(cc1C/C=C/c1ccccc1)OCO2
T/C [9]: 101 % of control | T/C [10]: 103 % of control | T/C [11]: 101 % of control

CCN1C(=O)c2cccc([N+](=O)[O-])c2C1=O
T/C (dose: 100.0 mg/kg/injection, schedule: Q01DX009 (ip), vehicle: Klucel (hydroxypropylcellulose) (HPC)): 101 % of control | T/C (dose: 200.0 mg/kg/injection, schedule: Q01DX009 (ip), vehicle: Klucel (hydroxypropylcellulose) (HPC)): 104 % of control

O=C([O][Sn]([O]C(=O)c1ccccc1)([c]1ccccc1)[c]1ccccc1)c1ccccc1
T/C (dose: 3.12 mg/kg/injection, schedule: Q01DX005 (ip), vehicle: Klucel (hydroxypropylcellulose) (HPC)): 111 % of control | T/C [12]: 116 % of control and 123 % of control | T/C [13]: 111 % of control and 123 % of control | T/C [14]: 151 % of control

OC1C2CCCC1C(c1ccccc1)NC2c1ccccc1 (centres undefined)
T/C (dose: 100.0 mg/kg/injection, schedule: Q04DX003 (ip), vehicle: saline): 100 % of control and 94 % of control | T/C (dose: 200.0 mg/kg/injection, schedule: Q04DX003 (ip), vehicle: saline): 100 % of control and 94 % of control | T/C (dose: 400.0 mg/kg/injection, schedule: Q04DX003 (ip), vehicle: saline): 100 % of control

O=C(O)C(Cc1ccccc1)N=Cc1ccc(O)cc1 (centres undefined)
T/C (dose: 100.0 mg/kg/injection, schedule: Q04DX003 (ip), vehicle: saline with Tween-80): 102 % of control | T/C (dose: 200.0 mg/kg/injection, schedule: Q04DX003 (ip), vehicle: saline with Tween-80): 106 % of control | T/C (dose: 400.0 mg/kg/injection, schedule: Q04DX003 (ip), vehicle: saline with Tween-80): 97 % of control

CC1CCn2c(nc3c2c(=O)n(C)c(=O)n3C)N1 (centres undefined)
T/C [15]: 102 % of control and 100 % of control | T/C [16]: 93 % of control and 94 % of control | T/C [17]: 93 % of control and 91 % of control

Cc1cc(=O)n2c(n1)sc1cc(Cl)ccc12
T/C (dose: 18.75 mg/kg/injection, schedule: Q04DX002 (ip), vehicle: Klucel (hydroxypropylcellulose) (HPC)): 102 % of control | T/C (dose: 37.5 mg/kg/injection, schedule: Q04DX002 (ip), vehicle: Klucel (hydroxypropylcellulose) (HPC)): 93 % of control | T/C (dose: 75.0 mg/kg/injection, schedule: Q04DX002 (ip), vehicle: Klucel (hydroxypropylcellulose) (HPC)): 101 % of control

O=C(OCCc1c[nH]c2ccccc12)N(CCCl)CCCl
T/C (dose: 1.56 mg/kg/injection, schedule: Q01DX009 (ip), vehicle: distilled water + Tween-80): 101 % of control | T/C (dose: 3.12 mg/kg/injection, schedule: Q01DX009 (ip), vehicle: distilled water + Tween-80): 103 % of control | T/C (dose: 6.25 mg/kg/injection, schedule: Q01DX009 (ip), vehicle: distilled water + Tween-80): 105 % of control | T/C (dose: 12.5 mg/kg/injection, schedule: Q01DX009 (ip), vehicle: distilled water + Tween-80): 109 % of control | T/C (dose: 25.0 mg/kg/injection, schedule: Q01DX009 (ip), vehicle: distilled water + Tween-80): 111 % of control

Cc1ccc(C)c(NC(=O)C(=O)C(C#N)c2c(Cl)cccc2Cl)c1 (centres undefined)
T/C [15]: 96 % of control | T/C [16]: 102 % of control | T/C [17]: 99 % of control

CC(O)C(NC(=O)OCC1c2ccccc2-c2ccccc21)C(=O)O (centres undefined)
T/C [18]: 104 % of control | T/C [19]: 100 % of control | T/C [20]: 107 % of control

CCCCCCCN(CCCCCCC)CC(O)c1c(Br)c2cc(Br)ccc2c2ccc(Br)cc12 (centres undefined)
T/C (dose: 1.25 mg/kg/injection, schedule: Q01DX009 (ip), vehicle: saline with Tween-80): 105 % of control | T/C [9]: 106 % of control | T/C [10]: 100 % of control

O=C1C2C3CCC(O3)C2C(=O)N1CCO (centres undefined)
T/C (dose: 60.0 mg/kg/injection, schedule: Q01DX005 (ip), vehicle: saline): 96 % of control | T/C (dose: 120.0 mg/kg/injection, schedule: Q01DX005 (ip), vehicle: saline): 89 % of control | T/C (dose: 240.0 mg/kg/injection, schedule: Q01DX005 (ip), vehicle: saline): 98 % of control

CC1(C)OC2(C)CCC1C1C2N1C(=O)C(c1ccccc1)c1ccccc1 (centres undefined)
T/C [18]: 109 % of control | T/C [19]: 100 % of control | T/C [20]: 109 % of control

O=S(=O)(Cc1cccc(C(F)(F)F)c1)c1nc2cccnc2s1
T/C [21]: 103 % of control | T/C [22]: 103 % of control | T/C [23]: 101 % of control

COC(=O)C1=C(C(=O)OC)P2(C)(C)ON=C(c3c(C)cc(C)cc3C)N2C1(c1ccccc1)c1ccccc1
T/C [18]: 100 % of control and 95 % of control | T/C [19]: 93 % of control | T/C [20]: 91 % of control and 94 % of control

O=C(O)C1CCC[N-]C1.O=C(O)C1CCC[N-]C1.[Cl][Pt+2][Cl] (centres undefined)
T/C [10]: 100 % of control | T/C [11]: 104 % of control | T/C (dose: 20.0 mg/kg/injection, schedule: Q01DX009 (ip), vehicle: saline with Tween-80): 109 % of control

NC(=O)N/N=C1\CCn2cccc21
T/C [15]: 92 % of control | T/C [16]: 95 % of control

O=C1c2c(O)ccc(N3CCOCC3)c2C(=O)c2c(N3CCOCC3)ccc(O)c21
T/C (dose: 60.0 mg/kg/injection, schedule: Q01DX005 (ip), vehicle: Klucel (hydroxypropylcellulose) (HPC)): 103 % of control | T/C (dose: 120.0 mg/kg/injection, schedule: Q01DX005 (ip), vehicle: Klucel (hydroxypropylcellulose) (HPC)): 98 % of control | T/C (dose: 240.0 mg/kg/injection, schedule: Q01DX005 (ip), vehicle: Klucel (hydroxypropylcellulose) (HPC)): 100 % of control

COC(=O)CCCCCC(O)C1CCC2OC(=O)CC21C (centres undefined)
T/C [22]: 118 % of control | T/C [23]: 100 % of control | T/C (dose: 400.0 mg/kg/injection, schedule: Q01DX009 (ip), vehicle: saline with Tween-80): 100 % of control

CC(=O)c1ccc(N=C2C(=O)Nc3ccccc32)cc1
T/C (dose: 12.5 mg/kg/injection, schedule: Q01DX009 (ip), vehicle: saline with Tween-80): 93 % of control | T/C (dose: 25.0 mg/kg/injection, schedule: Q01DX009 (ip), vehicle: saline with Tween-80): 87 % of control | T/C [21]: 89 % of control and 96 % of control | T/C [22]: 105 % of control | T/C [23]: 116 % of control

O.O.[Cu+2].[Cu+2].[NH-]CCC(=O)[N-]C(Cc1cnc[nH]1)C(=O)O.[NH-]CCC(=O)[N-]C(Cc1cnc[nH]1)C(=O)O (centres undefined)
T/C [12]: 98 % of control | T/C [13]: 97 % of control | T/C [14]: 106 % of control
